Experimental data: PubChem BioAssay (NCI)
Where “and” joins values, the source holds several entries; their conditions need not be identical. Identical values can stand only once.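 In this assay, cells in 96-well plates receive the compound at five concentrations for 48 hours. Endpoints are linearly interpolated between the surrounding concentrations. GI50 marks 50% less growth. TGI: concentration producing complete growth inhibition.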

Legend:
Experiment in all cases: inhibition of tumour cell growth, NCI panel, 48 h
KM12 colon = test system: KM12 colon
ACHN renal = test system: ACHN renal
K-562 leukemia = test system: K-562 leukemia
U251 CNS = test system: U251 CNS
SK-MEL-28 melanoma = test system: SK-MEL-28 melanoma
SNB-19 CNS = test system: SNB-19 CNS
HCT-15 colon = test system: HCT-15 colon
HCC-2998 colon = test system: HCC-2998 colon
OVCAR-8 ovarian = test system: OVCAR-8 ovarian
OVCAR-4 ovarian = test system: OVCAR-4 ovarian

Compound | GI50 (KM12 colon) [µM] | TGI (KM12 colon) | GI50 (ACHN renal) [µM] | TGI (ACHN renal) | GI50 (K-562 leukemia) [µM] | TGI (K-562 leukemia) | GI50 (U251 CNS) [µM] | TGI (U251 CNS) | GI50 (SK-MEL-28 melanoma) [µM] | TGI (SK-MEL-28 melanoma) | GI50 (SNB-19 CNS) [µM] | TGI (SNB-19 CNS) | GI50 (HCT-15 colon) [µM] | TGI (HCT-15 colon) | GI50 (HCC-2998 colon) | TGI (HCC-2998 colon) | GI50 (OVCAR-8 ovarian) [µM] | TGI (OVCAR-8 ovarian) | GI50 (OVCAR-4 ovarian) [µM] | TGI (OVCAR-4 ovarian)
COc1ccccc1NC(=O)N/C(N)=N/c1nc2ccccc2s1 | 0.0505 | > 100 µM | 0.327 | > 100 µM | 0.0351 | > 100 µM | 0.0655 | > 100 µM | 30.7 | > 100 µM | 0.0607 | > 100 µM | 0.0526 | > 100 µM | 0.375 µM | > 100 µM | 0.262 | > 100 µM | 0.218 | > 100 µM
COC(=O)c1c(C(=O)OC)c(C(=O)OC)c(C(=O)OC)c1C(=O)OC | – | > 100 µM | – | > 100 µM | – | > 100 µM | – | > 100 µM | – | > 100 µM | – | > 100 µM | – | > 100 µM | – | > 100 µM | – | > 100 µM | – | > 100 µM
Cc1cc(C)c(S(=O)(=O)Oc2ccccc2[N+](=O)[O-])c(C)c1 | 0.803 | > 100 µM | 5.56 | > 100 µM | 0.398 | > 100 µM | 2.36 | > 100 µM | 5.46 | > 100 µM | 4 | > 100 µM | 1.37 | > 100 µM | 2.95 µM | > 100 µM | 4.28 | > 100 µM | > 25.1 | > 100 µM
O=C(O/N=C1/CCC/C1=C\c1ccccc1)c1ccc(Cl)cc1 | – | > 100 µM | – | > 100 µM | – | > 100 µM | – | > 89.8 µM | – | > 100 µM | – | > 100 µM | – | > 100 µM | – | > 100 µM | – | > 100 µM | – | 58.7 µM
CCN(CCc1ccc(F)cc1)c1ccc(CO)c(Cl)c1 | 15 | 30 µM | 9.59 | 22.5 µM | 4.21 | 25.7 µM | 4.06 | 17.3 µM | 16.3 | 31.2 µM | 13.2 | 26.6 µM | 9.84 | 24.6 µM | 12.6 µM | 26.5 µM | 10.8 | 27.4 µM | 2.23 | 15.3 µM
N#CC(C(=N/NC(N)=S)/C(=N\NC(N)=S)C(C#N)c1ccccc1)c1ccccc1 (centres undefined) | – | > 10 µM | – | > 10 µM | – | > 10 µM | – | > 10 µM | – | > 10 µM | – | > 10 µM | – | > 10 µM | – | > 10 µM | – | > 10 µM | – | > 10 µM
C=CCCC12CCCC(=O)C1Sc1ccc3ccccc3c12 (centres undefined) | – | 31.2 µM | – | 92.3 µM | – | > 100 µM | – | 33.6 µM | – | > 100 µM | – | 96 µM | – | 37.5 µM | – | 34.2 µM | – | > 100 µM | – | > 100 µM
CC(C)(C)c1cc2c(OP(c3ccccc3)c3ccccc3)c(c1)Cc1cc(C(C)(C)C)cc(c1OP(c1ccccc1)c1ccccc1)Cc1cc(C(C)(C)C)cc(c1OP(c1ccccc1)c1ccccc1)Cc1cc(C(C)(C)C)cc(c1OP(c1ccccc1)c1ccccc1)C2 | > 50 | > 50 µM | – | > 5 µM | > 50 | > 50 µM | > 50 | > 50 µM | > 50 | > 50 µM | > 50 | > 50 µM | > 50 | > 50 µM | > 50 µM | > 50 µM | > 50 | > 50 µM | 22 | > 50 µM
NCC(=O)OCN1C(=O)C2C3C=CC(C2C1=O)C1C2C(=O)N(COC(=O)CN)C(=O)C2C31 (centres undefined) | – | 48.4 µM and 42.2 µM | – | 67.6 µM and 62.1 µM | – | 60.9 µM and > 100 µM | – | 45 µM and 38.7 µM | – | 35.3 µM and 40.8 µM | – | > 100 µM | – | 36.9 µM and 34.8 µM | 31.2 µM and 69.9 µM | 94.8 µM and > 100 µM | – | 47.4 µM and 39 µM | – | 39.1 µM and 55.4 µM
COc1cc(/C=C\c2cc(/C=C\c3ccc(O)c(OC)c3)n(C(=O)Nc3ccc(C(F)(F)F)cc3)n2)ccc1O | 2.33 | 5.59 µM | 2.48 | 7.08 µM | 2.53 | > 100 µM | 2.49 | 6.86 µM | 2.19 | 5.9 µM | 3.16 | 11.2 µM | 2.69 | 9.63 µM | 2.04 µM | 3.82 µM | 3.33 | > 100 µM | 3.51 | 52.7 µM
CC(=O)OC1C(O)COC(Oc2c(C)c3c4c(c2O)[C@@H](C)CC[C@@H]4[C@@H](C)C[C@H]3C=C(C)C)C1O (some centres undefined) | 14.8 | 30.8 µM | 18.7 | 42.5 µM | 10.3 | 30.2 µM | 18 | 35 µM | 22.3 | 48.2 µM | 23.4 | 49.6 µM | 15.2 | 31.7 µM | 18.7 µM | 43.6 µM | 23 | 49.8 µM | 16.8 | 47.1 µM
CC(C)[C@H](COC(C)(C)C)N=CN1CSc2ccccc21 | – | > 100 µM | – | 71.4 µM | – | > 100 µM | – | > 100 µM | – | > 100 µM | – | > 100 µM | – | > 100 µM | – | > 100 µM | – | > 100 µM | – | > 100 µM
COc1cc2c(cc1OCCN1C(=O)c3cccc4cccc(c34)C1=O)N=C[C@@H]1CCCN1C2=O | 12.4 | 50 µM and 24.9 µM | 19 | 14.9 µM and 33 µM | 7.63 | 10.9 µM and > 100 µM | 14.2 | 12.6 µM and > 100 µM | 19.7 | 16.3 µM and 49.3 µM | 37.7 | 30.2 µM and > 100 µM | 18.6 | 21.4 µM and 40.2 µM | 14.5 µM | 15.6 µM and 27.6 µM | 16.6 | 17.1 µM and 36.7 µM | – | 50 µM and 39 µM
COc1cc([N+](=O)[O-])c(S(=O)(=O)O)cc1-n1nc(-c2ccccc2)n[n+]1-c1cc(S(=O)(=O)[O-])c([N+](=O)[O-])cc1OC | – | > 100 µM | – | > 100 µM | – | > 100 µM | – | > 100 µM | – | > 100 µM | – | > 100 µM | – | > 100 µM | – | > 100 µM | – | > 100 µM | – | > 100 µM
COc1ccc2c3c([nH]c2c1[N+](=O)[O-])C(C)N(C(=O)/C=C/c1ccccc1)CC3 (centres undefined) | – | > 100 µM | – | > 100 µM | – | > 100 µM | – | > 100 µM | – | > 100 µM | – | > 100 µM | – | > 100 µM | – | > 100 µM | – | > 100 µM | – | > 100 µM
COc1ncnc2c1ncn2C/C(Br)=C(\Br)CCl | 3.54 | 13.4 µM | 2.14 | 4.92 µM | 3.29 | 10.9 µM | 1.74 | 3.64 µM | 2.62 | 8.62 µM | 12.1 | 24.5 µM | 1.84 | 4.16 µM | 17.2 µM | 31.2 µM | 3.01 | 7.84 µM | 1.61 | 3.02 µM
